Patent EP4104902B1, “COMPOUNDS AND M[…] SAME” (priority 2020, dated 2021)

Test system: recombinant rabies virus 1088 strain expressing Gaussia Luciferase (GLuc) (1088/GLuc)
Assay type: cell-based
Conditions: read-out: Anti-rabies activity

Structure (SMILES)	IC50 [µM]
CC(C)C[C@@H]1[C@@H]2[C@@H]3CN[C@@]1(C(=O)NCc1ccc(O)cc1)C[C@@H]3CN2Cc1ccc(F)cc1 (relative stereo) [IF-482]	10 to 30
O=C(NCCO)[C@@]12C[C@@H]3CN(CC4CCCCC4)[C@@H]([C@@H]3CN1)[C@H]2Cc1ccccc1 (relative stereo) [IF-486]	10 to 30
CC(C)CC[C@@H]1[C@@H]2[C@@H]3CN[C@@]1(C(=O)NCCO)C[C@@H]3CN2Cc1ccc(F)cc1 (relative stereo) [IF-490]	10 to 30
CC(C)CC[C@@H]1[C@@H]2[C@@H]3CN[C@@]1(C(=O)NCc1ccc(O)cc1)C[C@@H]3CN2Cc1ccccc1 (relative stereo) [IF-493]	< 5
O=C(NCc1ccc(O)cc1)[C@@]12C[C@@H]3CN(Cc4ccccc4)[C@@H]([C@@H]3CN1)[C@H]2Cc1ccccc1 (relative stereo) [IF-494]	10 to 30
CC(C)CN1C[C@H]2C[C@]3(C(=O)NCc4ccc(O)cc4)NC[C@H]2[C@H]1[C@H]3Cc1cccc2ccccc12 (relative stereo) [IF-500]	10 to 30
CC(C)CC[C@@H]1[C@@H]2[C@@H]3CN[C@@]1(C(=O)NC(C)C)C[C@@H]3CN2Cc1ccc(O)cc1 (relative stereo) [IF-503]	< 5
CC(C)NC(=O)[C@@]12C[C@@H]3CN(Cc4ccc(O)cc4)[C@@H]([C@@H]3CN1)[C@H]2Cc1cccc2ccccc12 (relative stereo) [IF-504]	10 to 30
O=C(NCc1ccccc1)[C@@]12C[C@@H]3CN(Cc4cccc5ccccc45)[C@@H]([C@@H]3CN1)[C@H]2Cc1ccc(O)cc1 (relative stereo) [IF-505]	< 5
O=C(NCc1ccc(F)cc1)[C@@]12C[C@@H]3CN(CCO)[C@@H]([C@@H]3CN1)[C@H]2Cc1ccccc1 (relative stereo) [IF-508]	10 to 30
CCCCCCNC(=O)[C@@]12C[C@@H]3CN(CC4CCCCC4)[C@@H]([C@@H]3CN1)[C@H]2Cc1ccc(O)cc1 (relative stereo) [IF-514]	< 5
O=C(NCc1ccc(F)cc1)[C@@]12C[C@@H]3CN(CCO)[C@@H]([C@@H]3CN1)[C@H]2CCc1ccccc1 (relative stereo) [IF-516]	< 5
CC(C)CN1C[C@H]2C[C@]3(C(=O)NCc4ccc(F)cc4)NC[C@H]2[C@H]1[C@H]3CCc1ccccc1 (relative stereo) [IF-525]	10 to 30
NC(=O)CCNC(=O)[C@@]12C[C@@H]3CN(CC4CCCCC4)[C@@H]([C@@H]3CN1)[C@H]2Cc1cccc2ccccc12 (relative stereo) [IF-536]	< 5
NC(=O)CCNC(=O)[C@@]12C[C@@H]3CN(Cc4ccc(F)cc4)[C@@H]([C@@H]3CN1)[C@H]2Cc1cccc2ccccc12 (relative stereo) [IF-539]	< 5
CC(C)C[C@@H]1[C@@H]2[C@@H]3CN[C@@]1(C(=O)NCc1cccc4ccccc14)C[C@@H]3CN2CCO (relative stereo) [IF-542]	< 5
O=C(NCc1cccc2ccccc12)[C@@]12C[C@@H]3CN(CCO)[C@@H]([C@@H]3CN1)[C@H]2Cc1ccc(O)cc1 (relative stereo) [IF-543]	10 to 30
CC(C)CCN1C[C@H]2C[C@]3(C(=O)NCCc4ccccc4)NC[C@H]2[C@H]1[C@H]3Cc1ccc(O)cc1 (relative stereo) [IF-545]	10 to 30
CCCCCCNC(=O)[C@@]12C[C@@H]3CN(CCC(C)C)[C@@H]([C@@H]3CN1)[C@H]2CC(C)C (relative stereo) [IF-546]	10 to 30

Structure (SMILES)	IC50 [µM]
CC(C)CCN1C[C@H]2C[C@]3(C(=O)NCc4ccc(F)cc4)NC[C@H]2[C@H]1[C@H]3Cc1ccccc1 (relative stereo) [IF-547]	< 5
CC(C)CCN1C[C@H]2C[C@]3(C(=O)NCc4ccc(F)cc4)NC[C@H]2[C@H]1[C@H]3CC(C)C (relative stereo) [IF-548]	10 to 30
CCCCCCNC(=O)[C@@]12C[C@@H]3CN(Cc4ccccc4)[C@@H]([C@@H]3CN1)[C@H]2CC(C)C (relative stereo) [IF-560]	< 5
O=C(NCc1ccc(F)cc1)[C@@]12C[C@@H]3CN(Cc4ccccc4)[C@@H]([C@@H]3CN1)[C@H]2Cc1ccccc1 (relative stereo) [IF-561]	< 5
O=C(NCc1ccc(O)cc1)[C@@]12C[C@@H]3CN(Cc4ccccc4)[C@@H]([C@@H]3CN1)[C@H]2CCc1ccccc1 (relative stereo) [IF-565]	< 5
CC(C)CN1C[C@H]2C[C@]3(C(=O)NCCc4ccccc4)NC[C@H]2[C@H]1[C@H]3Cc1ccc(O)cc1 (relative stereo) [IF-567]	10 to 30
CCCCCCNC(=O)[C@@]12C[C@@H]3CN(CC(C)C)[C@@H]([C@@H]3CN1)[C@H]2CC(C)C (relative stereo) [IF-569]	10 to 30
CC(C)CN1C[C@H]2C[C@]3(C(=O)NCc4ccc(O)cc4)NC[C@H]2[C@H]1[C@H]3CCc1ccccc1 (relative stereo) [IF-576]	10 to 30
CC(C)C[C@@H]1[C@@H]2[C@@H]3CN[C@@]1(C(=O)NCc1cccc4ccccc14)C[C@@H]3CN2Cc1ccc(O)cc1 (relative stereo) [IF-578]	< 5
O=C(NCCc1ccccc1)[C@@]12C[C@@H]3CN(Cc4ccc(O)cc4)[C@@H]([C@@H]3CN1)[C@H]2Cc1cccc2ccccc12 (relative stereo) [IF-580]	10 to 30
CCCCCCNC(=O)[C@@]12C[C@@H]3CN(CCC(C)C)[C@@H]([C@@H]3CN1)[C@H]2Cc1ccc(O)cc1 (relative stereo) [IF-583]	< 5
CC(C)CCNC(=O)[C@@]12C[C@@H]3CN(Cc4ccc(F)cc4)[C@@H]([C@@H]3CN1)[C@H]2Cc1ccccc1 (relative stereo) [IF-584]	< 5
CC(C)CCNC(=O)[C@@]12C[C@@H]3CN(Cc4ccc(F)cc4)[C@@H]([C@@H]3CN1)[C@H]2CC(C)C (relative stereo) [IF-585]	< 5
O=C(NCCc1ccccc1)[C@@]12C[C@@H]3CN(Cc4ccc(F)cc4)[C@@H]([C@@H]3CN1)[C@H]2Cc1ccccc1 (relative stereo) [IF-586]	10 to 30
CC(C)NC(=O)[C@@]12C[C@@H]3CN(Cc4cccc5ccccc45)[C@@H]([C@@H]3CN1)[C@H]2Cc1cccc2ccccc12 (relative stereo) [IF-596]	10 to 30
CCCCCCNC(=O)[C@@]12C[C@@H]3CN(CCC(C)C)[C@@H]([C@@H]3CN1)[C@H]2Cc1ccccc1 (relative stereo) [IF-599]	10 to 30
CCCCCCNC(=O)[C@@]12C[C@@H]3CN(CCc4ccccc4)[C@@H]([C@@H]3CN1)[C@H]2Cc1ccccc1 (relative stereo) [IF-602]	10 to 30
O=C(NCCO)[C@@]12C[C@@H]3CN(Cc4cccc5ccccc45)[C@@H]([C@@H]3CN1)[C@H]2Cc1ccccc1 (relative stereo) [IF-603]	10 to 30
CC(C)C[C@@H]1[C@@H]2[C@@H]3CN[C@@]1(C(=O)NCCO)C[C@@H]3CN2Cc1cccc2ccccc12 (relative stereo) [IF-604]	10 to 30

Structure (SMILES)	IC50 [µM]
CC(C)C[C@@H]1[C@@H]2[C@@H]3CN[C@@]1(C(=O)NCCO)C[C@@H]3CN2CC1CCCCC1 (relative stereo) [IF-606]	10 to 30
O=C(NCCc1ccccc1)[C@@]12C[C@@H]3CN(CCO)[C@@H]([C@@H]3CN1)[C@H]2Cc1cccc2ccccc12 (relative stereo) [IF-610]	10 to 30
CC(C)CCN1C[C@H]2C[C@]3(C(=O)NCCO)NC[C@H]2[C@H]1[C@H]3Cc1cccc2ccccc12 (relative stereo) [IF-611]	10 to 30
O=C(NCCO)[C@@]12C[C@@H]3CN(CCc4ccccc4)[C@@H]([C@@H]3CN1)[C@H]2Cc1cccc2ccccc12 (relative stereo) [IF-612]	10 to 30
CC(C)CC[C@@H]1[C@@H]2[C@@H]3CN[C@@]1(C(=O)NCCO)C[C@@H]3CN2Cc1cccc2ccccc12 (relative stereo) [IF-613]	10 to 30
O=C(NCCO)[C@@]12C[C@@H]3CN(Cc4cccc5ccccc45)[C@@H]([C@@H]3CN1)[C@H]2Cc1cccc2ccccc12 (relative stereo) [IF-614]	10 to 30
O=C(NCCO)[C@@]12C[C@@H]3CN(CC4CCCCC4)[C@@H]([C@@H]3CN1)[C@H]2Cc1cccc2ccccc12 (relative stereo) [IF-619]	10 to 30
O=C(NCCO)[C@@]12C[C@@H]3CN(Cc4ccc(F)cc4)[C@@H]([C@@H]3CN1)[C@H]2Cc1cccc2ccccc12 (relative stereo) [IF-620]	< 5
O=C(NCCO)[C@@]12C[C@@H]3CN(Cc4ccccc4)[C@@H]([C@@H]3CN1)[C@H]2Cc1cccc2ccccc12 (relative stereo) [IF-624]	10 to 30
CC(C)CCN1C[C@H]2C[C@]3(C(=O)NCC(C)C)NC[C@H]2[C@H]1[C@H]3CCc1ccccc1 (relative stereo) [IF-635]	10 to 30
CC(C)C[C@@H]1[C@@H]2[C@@H]3CN[C@@]1(C(=O)NCc1ccccc1)C[C@@H]3CN2CCc1ccccc1 (relative stereo) [IF-639]	< 5
O=C(NCc1ccccc1)[C@@]12C[C@@H]3CN(CCc4ccccc4)[C@@H]([C@@H]3CN1)[C@H]2Cc1ccc(O)cc1 (relative stereo) [IF-640]	10 to 30
CC(C)CNC(=O)[C@@]12C[C@@H]3CN(CCc4ccccc4)[C@@H]([C@@H]3CN1)[C@H]2Cc1ccccc1 (relative stereo) [IF-641]	< 5
CC(C)C[C@@H]1[C@@H]2[C@@H]3CN[C@@]1(C(=O)NCc1ccccc1)C[C@@H]3CN2CC1CCCCC1 (relative stereo) [IF-644]	< 5
O=C(NCc1ccccc1)[C@@]12C[C@@H]3CN(CC4CCCCC4)[C@@H]([C@@H]3CN1)[C@H]2Cc1ccc(O)cc1 (relative stereo) [IF-645]	10 to 30
CC(C)CNC(=O)[C@@]12C[C@@H]3CN(CC4CCCCC4)[C@@H]([C@@H]3CN1)[C@H]2Cc1cccc2ccccc12 (relative stereo) [IF-646]	< 5
O=C(NCc1ccccc1)[C@@]12C[C@@H]3CN(Cc4ccc(F)cc4)[C@@H]([C@@H]3CN1)[C@H]2Cc1ccccc1 (relative stereo) [IF-649]	< 5
CC(C)C[C@@H]1[C@@H]2[C@@H]3CN[C@@]1(C(=O)NCc1ccccc1)C[C@@H]3CN2Cc1ccc(F)cc1 (relative stereo) [IF-650]	< 5
CC(C)CNC(=O)[C@@]12C[C@@H]3CN(Cc4ccc(F)cc4)[C@@H]([C@@H]3CN1)[C@H]2CCc1ccccc1 (relative stereo) [IF-652]	< 5
